In patent US11077100B2, “Tetrahydroquinoline derivatives as P2X7 receptor antagonists” (RaQualia Pharma Inc., priority 2017, dated 2021):

Key:
human P2X7 = human P2X7 (Homo sapiens (Human), UniProt Q99572); assay: Human P2X7 functional assay (Ca2+ influx, Fluo-4, FDSS); format: cell-based; conditions: antagonistic activity with respect to the human P2X7 receptor; BzATP final concentration 80 microM
Outline: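 HEK293 cells stably expressing C-terminally FLAG-tagged human P2X7, loaded with Fluo-4. Compounds were preincubated for 10 min at room temperature, then 80 μM BzATP (final) was added and Ca2+ fluorescence read at 540 nm (480 nm excitation) by FDSS. IC50 values come from 7-point curves, duplicate wells.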

rat P2X7 = rat P2X7 (Rattus norvegicus (Rat), UniProt Q64663); assay: Rat P2X7 functional assay (Ca2+ influx, Fluo-4, FDSS); format: cell-based; conditions: HEK293 cells stably expressing rat P2X7; BzATP final 10 microM; 7-point dose-response; read-out: Antagonistic activities with respect to the rat P2X7 receptor (IC50)
Chain of rat P2X7 (Q64663 whole entry): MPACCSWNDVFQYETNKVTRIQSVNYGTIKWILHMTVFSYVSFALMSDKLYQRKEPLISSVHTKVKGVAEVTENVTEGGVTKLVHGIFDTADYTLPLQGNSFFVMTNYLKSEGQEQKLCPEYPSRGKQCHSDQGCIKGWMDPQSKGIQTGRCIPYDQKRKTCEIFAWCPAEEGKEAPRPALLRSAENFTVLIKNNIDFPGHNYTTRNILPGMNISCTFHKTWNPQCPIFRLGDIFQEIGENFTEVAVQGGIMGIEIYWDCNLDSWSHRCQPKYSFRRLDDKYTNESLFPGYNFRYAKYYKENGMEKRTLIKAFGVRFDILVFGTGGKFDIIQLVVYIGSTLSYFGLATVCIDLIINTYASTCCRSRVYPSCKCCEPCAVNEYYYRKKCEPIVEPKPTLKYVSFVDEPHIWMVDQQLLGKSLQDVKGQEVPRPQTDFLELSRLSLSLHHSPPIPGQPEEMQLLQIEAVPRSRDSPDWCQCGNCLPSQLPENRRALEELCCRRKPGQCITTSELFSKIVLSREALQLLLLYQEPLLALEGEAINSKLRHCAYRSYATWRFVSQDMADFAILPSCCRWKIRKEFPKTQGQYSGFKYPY
Outline: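 HEK293 cells stably expressing rat P2X7 (5,000/well, plated 24 h before) loaded with Fluo-4; compounds preincubated 10 min at room temperature, then Ca2+ rise after 10 microM BzATP (final) read on FDSS (480/540 nm). IC50 from 7-point curves, duplicate wells.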

Chain of human P2X7 (Q99572 whole entry): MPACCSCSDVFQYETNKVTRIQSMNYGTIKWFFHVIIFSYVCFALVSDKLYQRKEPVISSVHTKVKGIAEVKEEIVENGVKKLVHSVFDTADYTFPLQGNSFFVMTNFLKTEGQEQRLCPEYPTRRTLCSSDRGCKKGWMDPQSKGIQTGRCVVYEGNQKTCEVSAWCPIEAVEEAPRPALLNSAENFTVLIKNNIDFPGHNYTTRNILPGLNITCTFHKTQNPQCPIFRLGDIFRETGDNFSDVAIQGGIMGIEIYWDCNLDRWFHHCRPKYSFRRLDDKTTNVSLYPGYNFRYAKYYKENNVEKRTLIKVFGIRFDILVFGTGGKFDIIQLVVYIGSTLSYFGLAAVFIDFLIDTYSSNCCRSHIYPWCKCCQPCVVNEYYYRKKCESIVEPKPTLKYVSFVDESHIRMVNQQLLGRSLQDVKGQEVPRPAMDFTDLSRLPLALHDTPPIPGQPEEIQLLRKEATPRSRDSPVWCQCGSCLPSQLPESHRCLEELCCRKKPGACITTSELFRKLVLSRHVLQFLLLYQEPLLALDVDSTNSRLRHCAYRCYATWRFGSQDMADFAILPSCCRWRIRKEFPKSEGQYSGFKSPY

| Compound | IC50 (human P2X7) [nM] | IC50 (rat P2X7) [nM] |
| --- | --- | --- |
| O=C(NCc1ccc(F)cc1Cl)[C@@]1(F)CC[C@@H](O)c2ncccc21 [Example 134, (5R,8R)-N-(2-chloro-4-fluorobenzyl)-5-fluoro-8-hydroxy-5,6,7,8-tetrahydroquinoline-5-carboxamide] | 101 to 300 | < 1000 |
| O=C(NCc1ccc(F)c(F)c1F)[C@@]1(F)CC[C@@H](O)c2ncccc21 [Example 136, (5R,8R)-5-fluoro-8-hydroxy-N-(2,3,4-trifluorobenzyl)-5,6,7,8-tetrahydroquinoline-5-carboxamide] | 101 to 300 | < 1000 |
| O=C(NCc1cccc(Cl)c1Cl)[C@]1(F)CC[C@H](O)c2ncccc21 [Example 159, (5S,8S)-N-(2,3-dichlorobenzyl)-5-fluoro-8-hydroxy-5,6,7,8-tetrahydroquinoline-5-carboxamide] | < 50 | < 1000 |
| O=C(NCc1cc(F)c(F)cc1Cl)[C@]1(F)CC[C@H](O)c2ncccc21 [Example 163, (5S,8S)-N-(2-chloro-4,5-difluorobenzyl)-5-fluoro-8-hydroxy-5,6,7,8-tetrahydroquinoline-5-carboxamide] | < 50 | < 1000 |
| O=C(NCc1c(Cl)ccc(Cl)c1Cl)[C@]1(F)CC[C@H](O)c2ncccc21 [Example 165, (5S,8S)-5-fluoro-8-hydroxy-N-(2,3,6-trichlorobenzyl)-5,6,7,8-tetrahydroquinoline-5-carboxamide] | < 50 | < 1000 |
| Cc1ccc(CNC(=O)[C@]2(F)CC[C@H](O)c3ncccc32)c(Cl)c1 [Example 167, (5S,8S)-N-(2-chloro-4-methylbenzyl)-5-fluoro-8-hydroxy-5,6,7,8-tetrahydroquinoline-5-carboxamide] | < 50 | < 1000 |
| C[C@H](NC(=O)[C@]1(F)CC[C@H](O)c2ncccc21)c1ccc(Cl)c(Cl)c1Cl [Example 168, (5S,8S)-5-fluoro-8-hydroxy-N-((S)-1-(2,3,4-trichlorophenyl)ethyl)-5,6,7,8-tetrahydroquinoline-5-carboxamide] | 101 to 300 | < 1000 |
| O=C(NCc1cccc(F)c1Cl)[C@]1(F)CC[C@H](O)c2ncccc21 [Example 169, (5S,8S)-N-(2-chloro-3-fluorobenzyl)-5-fluoro-8-hydroxy-5,6,7,8-tetrahydroquinoline-5-carboxamide] | < 50 | < 1000 |
| O=C(NCc1c(F)ccc(F)c1Cl)[C@]1(F)CC[C@H](O)c2ncccc21 [Example 170, (5S,8S)-N-(2-chloro-3,6-difluorobenzyl)-5-fluoro-8-hydroxy-5,6,7,8-tetrahydroquinoline-5-carboxamide] | < 50 | < 1000 |
| O=C(NCc1c(F)cccc1Cl)[C@]1(F)CC[C@H](O)c2ncccc21 [Example 171, (5S,8S)-N-(2-chloro-6-fluorobenzyl)-5-fluoro-8-hydroxy-5,6,7,8-tetrahydroquinoline-5-carboxamide] | < 50 | < 1000 |
| COc1ccc(CNC(=O)[C@]2(F)CC[C@H](O)c3ncccc32)c(Cl)c1 [Example 172, (5S,8S)-N-(2-chloro-4-methoxybenzyl)-5-fluoro-8-hydroxy-5,6,7,8-tetrahydroquinoline-5-carboxamide] | 101 to 300 | < 1000 |
| O=C(NCc1c(F)cc(F)cc1Cl)[C@]1(F)CC[C@H](O)c2ncccc21 [Example 176, (5S,8S)-N-(2-chloro-4,6-difluorobenzyl)-5-fluoro-8-hydroxy-5,6,7,8-tetrahydroquinoline-5-carboxamide] | < 50 | < 1000 |

Next, values leading:

| IC50 (human P2X7) [nM] | IC50 (rat P2X7) [nM] | Compound |
| --- | --- | --- |
| < 50 | < 1000 | O=C(NCc1ccc(F)cc1Cl)[C@]1(F)CC[C@H](O)c2ncccc21 [Example 135, (5S,8S)-N-(2-chloro-4-fluorobenzyl)-5-fluoro-8-hydroxy-5,6,7,8-tetrahydroquinoline-5-carboxamide] |
| < 50 | < 1000 | O=C(NCc1ccc(F)c(F)c1F)[C@]1(F)CC[C@H](O)c2ncccc21 [Example 137, (5S,8S)-5-fluoro-8-hydroxy-N-(2,3,4-trifluorobenzyl)-5,6,7,8-tetrahydroquinoline-5-carboxamide] |
| < 50 | < 1000 | O=C(NCc1c(Cl)cccc1Cl)[C@]1(F)CC[C@H](O)c2ncccc21 [Example 139, (5S,8S)-N-(2,6-dichlorobenzyl)-5-fluoro-8-hydroxy-5,6,7,8-tetrahydroquinoline-5-carboxamide] |
| < 50 | < 1000 | O=C(NCc1ccc(F)cc1F)[C@]1(F)CC[C@H](O)c2ncccc21 [Example 141, (5S,8S)-N-(2,4-difluorobenzyl)-5-fluoro-8-hydroxy-5,6,7,8-tetrahydroquinoline-5-carboxamide] |
| < 50 | < 1000 | Cc1ccc(F)c(CNC(=O)[C@]2(F)CC[C@H](O)c3ncccc32)c1Cl [Example 142, (5S,8S)-N-(2-chloro-6-fluoro-3-methylbenzyl)-5-fluoro-8-hydroxy-5,6,7,8-tetrahydroquinoline-5-carboxamide] |
| < 50 | < 1000 | O=C(NCc1ccc(Cl)cc1F)[C@]1(F)CC[C@H](O)c2ncccc21 [Example 146, (5S,8S)-N-(4-chloro-2-fluorobenzyl)-5-fluoro-8-hydroxy-5,6,7,8-tetrahydroquinoline-5-carboxamide] |
| < 50 | < 1000 | O=C(NCc1c(Cl)cc(C(F)(F)F)cc1Cl)[C@]1(F)CC[C@H](O)c2ncccc21 [Example 148, (5S,8S)-N-(2,6-dichloro-4-(trifluoromethyl)benzyl)-5-fluoro-8-hydroxy-5,6,7,8-tetrahydroquinoline-5-carboxamide] |
| < 50 | < 1000 | O=C(NCc1c(Cl)cc(Cl)cc1C(F)F)[C@]1(F)CC[C@H](O)c2ncccc21 [Example 149, (5S,8S)-N-(2,4-dichloro-6-(difluoromethyl)benzyl)-5-fluoro-8-hydroxy-5,6,7,8-tetrahydroquinoline-5-carboxamide] |
| < 50 | < 1000 | O=C(NCc1c(Cl)cc(F)cc1CO)[C@]1(F)CC[C@H](O)c2ncccc21 [Example 150, (5S,8S)-N-(2-chloro-4-fluoro-6-(hydroxymethyl)benzyl)-5-fluoro-8-hydroxy-5,6,7,8-tetrahydroquinoline-5-carboxamide] |
| < 50 | < 1000 | O=C(NCc1ccc(Br)cc1Cl)[C@@]1(F)CC[C@@H](O)c2ncccc21 [Example 153, (5R,8R)-N-(4-bromo-2-chlorobenzyl)-5-fluoro-8-hydroxy-5,6,7,8-tetrahydroquinoline-5-carboxamide] |
| < 50 | < 1000 | O=C(NCc1ccc(Br)cc1Cl)[C@]1(F)CC[C@H](O)c2ncccc21 [Example 154, (5S,8S)-N-(4-bromo-2-chlorobenzyl)-5-fluoro-8-hydroxy-5,6,7,8-tetrahydroquinoline-5-carboxamide] |
| < 50 | < 1000 | O=C(NCc1ccc(Cl)cc1C(F)(F)F)[C@]1(F)CC[C@H](O)c2ncccc21 [Example 157, (5S,8S)-N-(4-chloro-2-(trifiuoromethyl)benzyl)-5-fluoro-8-hydroxy-5,8,7,8-tetrahydroquinoline-5-carboxamide] |
| < 50 | < 1000 | O=C(NCc1cccc(Cl)c1Cl)[C@@]1(F)CC[C@@H](O)c2ncccc21 [Example 158, (5R,8R)-N-(2,3-dichlorobenzyl)-5-fluoro-8-hydroxy-5,6,7,8-tetrahydroquinoline-5-carboxamide] |
